Measurements published in the NIST ThermoML archive (doi:10.1021/je700339f).
± gives the expanded uncertainty stated by the source.

Conditions: Liquid

ClCCCCCCCl [1,6-dichlorohexane]
mass density [kg/m3]
Conditions	288.15 K	298.15 K	308.15 K	318.15 K
100 kPa	1073.7 ± 1.4	1063.8 ± 1.4	1054.6 ± 1.3	1045.1 ± 1.3
500 kPa	1073.9 ± 1.4	1064.2 ± 1.4	1054.9 ± 1.3	1045.3 ± 1.3
1000 kPa	1074.3 ± 1.4	1064.4 ± 1.4	1055.2 ± 1.3	1045.7 ± 1.3
1500 kPa	–	1064.8 ± 1.4	1055.5 ± 1.3	1046.2 ± 1.3
1600 kPa	1074.6 ± 1.4	–	–	–
2000 kPa	1075 ± 1.5	1065.2 ± 1.4	1055.9 ± 1.4	1046.6 ± 1.3
2500 kPa	1075.3 ± 1.5	1065.5 ± 1.4	1056.3 ± 1.4	1046.9 ± 1.3
3100 kPa	1075.7 ± 1.5	1065.9 ± 1.4	1056.7 ± 1.4	1047.4 ± 1.3
3600 kPa	1076 ± 1.5	1066.3 ± 1.4	1057.1 ± 1.4	1047.8 ± 1.3
4100 kPa	1076.3 ± 1.5	1066.7 ± 1.5	1057.4 ± 1.4	1048.1 ± 1.3
4500 kPa	–	1066.9 ± 1.5	–	–
4600 kPa	1076.6 ± 1.5	–	1057.8 ± 1.4	1048.4 ± 1.4
5000 kPa	–	1067.3 ± 1.5	–	–
5100 kPa	1076.9 ± 1.5	–	1058.2 ± 1.4	1048.9 ± 1.4
5600 kPa	1077.3 ± 1.6	1067.6 ± 1.5	1058.5 ± 1.4	1049.2 ± 1.4
6100 kPa	1077.6 ± 1.6	1068 ± 1.5	1058.9 ± 1.4	1049.7 ± 1.4
6500 kPa	1077.9 ± 1.6	–	–	–
6600 kPa	–	1068.4 ± 1.5	1059.2 ± 1.5	1050 ± 1.4
7100 kPa	1078.3 ± 1.6	1068.7 ± 1.5	1059.6 ± 1.5	1050.4 ± 1.4
7600 kPa	1078.5 ± 1.6	1069 ± 1.5	1059.8 ± 1.5	1050.7 ± 1.4
8100 kPa	1078.9 ± 1.6	1069.4 ± 1.6	1060.2 ± 1.5	1051.2 ± 1.4
8500 kPa	–	–	–	1051.4 ± 1.4
8600 kPa	1079.2 ± 1.6	1069.7 ± 1.6	1060.6 ± 1.5	–
9100 kPa	1079.5 ± 1.7	–	–	1051.8 ± 1.4
9200 kPa	–	1070.1 ± 1.6	1061 ± 1.5	–
9600 kPa	1079.9 ± 1.7	1070.4 ± 1.6	1061.4 ± 1.5	1052.2 ± 1.5
10100 kPa	1080.2 ± 1.7	1070.7 ± 1.6	1061.7 ± 1.5	1052.6 ± 1.5
10600 kPa	1080.5 ± 1.7	1071.1 ± 1.6	1062.1 ± 1.6	–
10700 kPa	–	–	–	1053.1 ± 1.5
11000 kPa	–	1071.3 ± 1.6	–	–
11100 kPa	1080.8 ± 1.7	–	1062.4 ± 1.6	1053.6 ± 1.5
11600 kPa	1081.2 ± 1.7	–	1062.7 ± 1.6	1053.9 ± 1.5
11700 kPa	–	1071.7 ± 1.7	–	–
12100 kPa	1081.5 ± 1.8	1071.9 ± 1.7	1063.1 ± 1.6	1054.1 ± 1.5
12600 kPa	1081.8 ± 1.8	1072.3 ± 1.7	1063.5 ± 1.6	1054.5 ± 1.5
13100 kPa	1082.1 ± 1.8	1072.6 ± 1.7	1063.8 ± 1.6	1054.8 ± 1.5
13600 kPa	1082.4 ± 1.8	1072.9 ± 1.7	1064.1 ± 1.6	1055.3 ± 1.6
14100 kPa	–	–	1064.5 ± 1.6	–
14200 kPa	1082.8 ± 1.8	1073.3 ± 1.7	–	1055.6 ± 1.6
14700 kPa	1083 ± 1.8	1073.6 ± 1.7	–	1056 ± 1.6
14800 kPa	–	–	1064.9 ± 1.7	–
15100 kPa	–	–	1065.1 ± 1.7	–
15200 kPa	1083.4 ± 1.8	1074 ± 1.8	–	1056.3 ± 1.6
15600 kPa	–	–	–	1056.6 ± 1.6
15700 kPa	1083.7 ± 1.9	1074.3 ± 1.8	1065.5 ± 1.7	–
16200 kPa	–	–	1065.8 ± 1.7	–
16300 kPa	1084 ± 1.9	–	–	1057.1 ± 1.6
16400 kPa	–	1074.8 ± 1.8	–	–
16700 kPa	–	–	1066.2 ± 1.7	–
16800 kPa	1084.3 ± 1.9	1075.2 ± 1.8	–	1057.3 ± 1.6
17300 kPa	1084.6 ± 1.9	1075.5 ± 1.8	1066.6 ± 1.7	1057.7 ± 1.6
17800 kPa	1084.9 ± 1.9	1075.8 ± 1.8	1066.9 ± 1.7	1058 ± 1.7
18300 kPa	1085.3 ± 1.9	1076.1 ± 1.9	1067.2 ± 1.8	1058.3 ± 1.7
18700 kPa	–	1076.4 ± 1.9	1067.4 ± 1.8	–
18800 kPa	1085.5 ± 2	–	–	–
18900 kPa	–	–	–	1058.8 ± 1.7
19200 kPa	1085.7 ± 2	1076.7 ± 1.9	1067.8 ± 1.8	1059 ± 1.7
19700 kPa	1086 ± 2	1076.9 ± 1.9	1068 ± 1.8	1059.3 ± 1.7
20200 kPa	1086.5 ± 2	1077.3 ± 1.9	–	1059.6 ± 1.7
20300 kPa	–	–	1068.5 ± 1.8	–
